The numbers were not newly measured in patent US11904118B2, “Drug delivery medical device” (Micell Medtech Inc., priority 2010, dated 2024), which cites them from elsewhere.

The target in the series is FKBP12 (Homo sapiens, UniProt P62942).
Chain of FKBP12 (P62942 whole entry, species assumed): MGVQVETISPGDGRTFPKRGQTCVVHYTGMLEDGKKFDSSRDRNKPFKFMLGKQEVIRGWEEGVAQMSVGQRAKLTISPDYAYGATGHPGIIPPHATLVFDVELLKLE

As to `CO[C@H]1C[C@@H]2CC[C@@H](C)[C@@](O)(O2)C(=O)C(=O)N2CCCC[C@H]2C(=O)O[C@H]([C@H](C)C[C@@H]2CC[C@@H](OCCO)[C@H](OC)C2)CC(=O)[C@H](C)/C=C(\C)[C@@H](O)[C@@H](OC)C(=O)[C@H](C)C[C@H](C)/C=C/C=C/C=C/1C` [Everolimus, 40-O-(2-Hydroxyethyl)rapamycin], the “FKBP12 binding” value was 1.8 to 2.6 nM. In the case of `CO[C@H]1C[C@@H]2CC[C@@H](C)[C@@](O)(O2)C(=O)C(=O)N2CCCC[C@H]2C(=O)O[C@H]([C@H](C)C[C@@H]2CC[C@@H](OC(=O)C(C)(CO)CO)[C@H](OC)C2)CC(=O)[C@H](C)/C=C(\C)[C@@H](O)[C@@H](OC)C(=O)[C@H](C)C[C@H](C)/C=C/C=C/C=C/1C` [Temsirolimus, 42-[3-hydroxy-2-(hydroxymethyl)-2-methylpropanoate]rapamycin], the “FKBP12 binding (nM)” value is given as “about the same as Sirolimus”. For `CO[C@H]1C[C@@H]2CC[C@@H](C)[C@@](O)(O2)C(=O)C(=O)N2CCCC[C@H]2C(=O)O[C@H]([C@H](C)C[C@@H]2CC[C@H](n3cnnn3)[C@H](OC)C2)CC(=O)[C@H](C)/C=C(\C)[C@@H](O)[C@@H](OC)C(=O)[C@H](C)C[C@H](C)/C=C/C=C/C=C/1C` [Zotarolimus], the “FKBP12 binding” value is 2.0 to 3.2 nM. As for `C=CC[C@@H]1/C=C(\C)C[C@H](C)C[C@H](OC)[C@H]2O[C@@](O)(C(=O)C(=O)N3CCCC[C@H]3C(=O)O[C@H](/C(C)=C/[C@@H]3CC[C@@H](O)[C@H](OC)C3)[C@H](C)[C@@H](O)CC1=O)[C@H](C)C[C@@H]2OC` [Tacrolimus], the “FKBP12 binding” value is 0.2 to 0.4 nM.

Regarding `CC[C@@H]1/C=C(\C)C[C@H](C)C[C@H](OC)[C@H]2O[C@@](O)(C(=O)C(=O)N3CCCC[C@H]3C(=O)O[C@H](/C(C)=C/[C@@H]3CC[C@H](Cl)[C@H](OC)C3)[C@H](C)[C@@H](O)CC1=O)[C@H](C)C[C@@H]2OC` [Pimecrolimus], the “FKBP12 binding (nM)” value is recorded as “about 1.2 nM”.
